Source: ChEMBL document CHEMBL5131382, “Facile and divergent optimization of chromazonarol enabled the identification of simplified drimane meroterpenoids as novel pharmaceutical leads” (Eur J Med Chem, 2022)

What was measured:
[1] = tested on: HepG2; test: Antiproliferative activity against human HepG2 cells assessed as inhibition of cell proliferation incubated for 72 hrs by MTT assay; format: functional, cell-based; conditions: HepG2, 72 h
[2] = tested on: Rhizoctonia solani; test: Antifungal activity against Rhizoctonia solani; format: functional, organism-based
[3] = tested on: Pyricularia oryzae; test: Antifungal activity against Pyricularia oryzae at 150 uM; format: functional
[4] = tested on: Sclerotinia sclerotiorum; test: Antifungal activity against Sclerotinia sclerotiorum at 150 uM; format: functional
[5] = tested on: Sclerotinia sclerotiorum; test: Antifungal activity against Sclerotinia sclerotiorum; format: functional, organism-based
[6] = tested on: Phytophthora capsici; test: Antifungal activity against Phytophthora capsici at 150 uM; format: functional
[7] = tested on: Fusarium graminearum; test: Antifungal activity against Fusarium graminearum at 150 uM; format: functional
[8] = tested on: Rhizoctonia solani; test: Antifungal activity against Rhizoctonia solani at 150 uM; format: functional
[9] = tested on: MCF7; test: Antiproliferative activity against human MCF7 cells assessed as inhibition of cell proliferation incubated for 72 hrs by MTT assay; format: functional, cell-based; conditions: MCF7, 72 h

SMILES	EC50 [1]	EC50 [2]	inhibition at 150 µM [3]	inhibition at 150 µM [4]	EC50 [5]	inhibition at 150 µM [6]	inhibition at 150 µM [7]	inhibition at 150 µM [8]	EC50 [9]
CC1(C)CCC[C@]2(C)[C@@H](Cc3cc(O)ccc3O)[C@](C)(O)CC[C@@H]12	> 50 µM	> 150 µM	28%	39%	> 150 µM	28%	39%	48%	50 µM
CC1(C)CCC[C@]2(C)[C@@H](Cc3ccc(O)cc3O)[C@](C)(O)CC[C@@H]12	10.2 µM	41.7 µM	9%	81%	15.2 µM	37%	41%	91%	11.9 µM
CC1(C)CCC[C@]2(C)[C@H]3Cc4ccc(O)cc4O[C@]3(C)CC[C@@H]12	–	–	50%	47%	–	53%	49%	72%	–
CC1(C)CCC[C@]2(C)[C@H]3Cc4cccc(O)c4O[C@]3(C)CC[C@@H]12	–	–	21%	22%	–	40%	31%	53%	–
Cc1c(C[C@@H]2[C@@]3(C)CCCC(C)(C)[C@H]3CC[C@]2(C)O)c(O)cc(O)c1C[C@@H]1[C@@]2(C)CCCC(C)(C)[C@@H]2CC[C@@]1(C)O	–	–	-4%	6%	–	6%	4%	1%	–
CC1(C)CCC[C@]2(C)[C@@H](Cc3c(O)cccc3O)[C@](C)(O)CC[C@@H]12	13.9 µM	29.3 µM	15%	84%	26.7 µM	50%	49%	88%	16 µM
Cc1cc(O)cc(O)c1C[C@@H]1[C@@]2(C)CCCC(C)(C)[C@@H]2CC[C@@]1(C)O	11.1 µM	35.2 µM	65%	82%	40.4 µM	29%	56%	92%	11.3 µM
CC1(C)CCC[C@]2(C)[C@H]3Cc4cc(O)cc(O)c4[C@]3(C)CC[C@@H]12	–	–	49%	43%	–	65%	60%	68%	–
Cc1ccc(O)c(C[C@@H]2[C@@]3(C)CCCC(C)(C)[C@@H]3CC[C@@]2(C)O)c1	–	–	-5%	8%	–	1%	-4%	-12%	–
CC1(C)CCC[C@]2(C)[C@@H](Cc3cc(C(=O)O)ccc3O)[C@](C)(O)CC[C@@H]12	> 50 µM	22.5 µM	60%	84%	22.2 µM	62%	56%	85%	50 µM
CC1(C)CCC[C@@]2(C)[C@H]1CCC1(C)Oc3ccc(Oc4cccnc4)cc3C[C@@H]12 (single isomer, unassigned)	–	–	< 60%	< 60%	–	< 60%	< 60%	< 60%	–
Cc1cc(O)c(C[C@@H]2[C@@]3(C)CCCC(C)(C)[C@@H]3CC[C@@]2(C)O)c(O)c1 [ALBACONOL]	10.4 µM	> 150 µM	7%	72%	24.4 µM	30%	43%	49%	10.1 µM
O=C(Nc1ccccc1-c1ccc(Cl)cc1)c1cccnc1Cl [BOSCALID]	–	1.62 µM	74%	79%	0.75 µM	23%	27%	93%	–
